{
  "source": "patent US20140212478A1",
  "about": "“METHOD FOR PREVENTING AND/OR TREATING PERIODONTAL DISEASE” (priority 2008, published 2014)",
  "test_system": "dental root-periodontal tissue of excised first molar (lower jaw)",
  "assay": "Effect on dental root-periodontal tissue formation: honokiol-impregnated agarose bead embedded into dental pulp of excised mouse first molar, graft culture under kidney capsule of host mice",
  "type": "in vivo, C57BL/6 mice",
  "from_the_text": "Dulbecco' phosphate buffered saline (hereinbelow, it is some times referred to as “D-PBS”) was purchased from Dainippon Pharmaceuticals Inc. Affi-Gel agarose beads (Affigel heparin Cat. No.: 15306173) were purchased from Bio-Rad Laboratories, Inc. Five days age of C57BL/6 mice were purchased from Sankyo Labo Service Corporation. As host mice, 10 to 15 weeks age of C57BL/6 mice (female) were purchased from Sankyo Labo Service Corporation, and used two per group. Since it was know that a kidney and an anterior chamber of eye hardly have immune response among organs in adult mice, it was not necessary to especially use nude mice in graft culture.\nHonokiol-impregnated agarose beads were prepared as follows. Honokiol was diluted to the concentration of 10 μM by using D-PBS. The agarose beads were washed with D-PBS.\nAfter washing, four agarose beads were placed in the 1.5 mL tube and 100 μL of the honokiol solution was added into it. Then, the tube was incubated at room temperature for 45 minutes to impregnated honokiol into the agarose beads. As mentioned above, absorptive beads including heparin honokiol impregnation (hereinbelow, it is sometimes referred to as “honokiol-impregnated agarose beads”) were prepared.\nAlternatively, another four agarose beads were placed in the 1.5 mL tube and 100 μL of D-PBS was added into it to prepare D-PBS-impregnated agarose beads were prepared, and they were used as negative control.\nFive days age of […] mice, where their dental root-periodontal tissue was just before formed, were anesthetized and sacrificed by decapitation. After excised lower jaw of them, the first molars in the lower jaw were excised with dental follicles. One of the honokiol-impregnated agarose beads prepared in the (5-1) was embedded into the dental pulp of the excised teeth, the first molar in the lower jaw.\nAs the negative control, one of the D-PBS-impregnated agarose beads prepared was embedded into the dental pulp of another excised teeth, the first molar in the lower jaw.\nThe excised teeth under which the honokiol-impregnated agarose bead was embedded, and that under which the D-PBS impregnated agarose bead was embedded, were respectively grafted under capsule of kidney of the host mice. The host mice were bred under the condition of 12 hours lighting, at room temperature, 25° C., free taking feed and water for three weeks.\nAfter three weeks from grafting of the excised tooth, the host mice were sacrificed by dislocation of cervical vertebrae to excise the kidney to recover the cultured excised tooth (grafted tooth).\nFormation of dental root-periodontal tissue (extension), coat of the dental root, and bone of the grafted tooth, which was recovered, were observed under stereoscopic microscope, and then subjected to tomography by using micro CT. […]",
  "note": "Entries after “also recorded” stand apart in the source; their conditions may differ.",
  "data": [
    {"substance": "honokiol", "values": [
      {"measurement": "extension of dental root (dental root-periodontal tissue formation)", "setting": "agarose bead impregnated with 10 μM honokiol in D-PBS, embedded into dental pulp, three weeks graft culture under kidney capsule, stereoscopic microscope and micro CT, compared to D-PBS negative control", "result": "prominent extension of dental root; also recorded: excellent promotion effect for dental root-periodontal tissue formation (extension)"},
      {"measurement": "bone formation around the newly formed dental root", "setting": "agarose bead impregnated with 10 μM honokiol, embedded into dental pulp, three weeks graft culture under kidney capsule, all graft samples with dental root extension", "result": "bone formation around the newly formed dental root were also observed"},
      {"measurement": "periodontal ligament-like structure between the dental root and the bone formed", "setting": "agarose bead impregnated with 10 μM honokiol, embedded into dental pulp, three weeks graft culture, soft X-ray / micro CT section", "result": "structure similar to periodontal ligamentous band was observed"},
      {"measurement": "promotion effect for surrounding tissue (periodontal ligament and alveolar bone), overall conclusion", "setting": "pharmaceutical preparation comprising honokiol as the active ingredient, conclusion from graft culture results", "result": "promotion effect for surrounding tissue such as the periodontal ligament and alveolar bone"}
    ]}
  ]
}
